From article PMC7551609 (Viruses, 2020)
Entries after “also recorded” stand apart in the source; their conditions may differ. Where two headings read alike, the source gives them in different places.

How the values were obtained:
[1] = XTT cell proliferation in A549 cells; type: cell-based, human; conditions: human, highest concentration used 50.00 µM, sentence also cites [17]
ZIKV Paraiba/2015 [2] = test: Viral inhibition assay, post-infection treatment, Vero cells; type: cell-based, Zika virus; conditions: for EC50: 36 h, ZIKV Paraiba/2015, Vero cells, post-infection treatment; for MIC: read-out: Post-treatment MIC (maximum effective concentration); for inhibitor category based on SI-MTT and SI-XTT / inhibitor category based on SI-MTT / inhibitor category based on SI-XTT: post-treatment, Paraiba/2015, Vero
Caspase 3 and 7 = test: Apoptosis assay (Caspase Glo 3/7) in ZIKV-infected Vero cells; conditions: 0, 0.1, 1, 10 EC50; 24, 48, 72 h post-treatment
ZIKV Paraiba/2015 [3] = test: Viral inhibition assay, pre-treatment (prophylactic), Vero cells; type: cell-based, Zika virus; conditions: for MIC / EC50: Zika virus; for MIC: read-out: Pre-treatment MIC (maximum effective concentration); for EC50: ZIKV Paraiba/2015, Vero cells, pre-treatment 12 h before infection
[4] = MTT cell viability assay in Vero cells; type: cell-based, African green monkey; conditions: African green monkey, non-infected Vero cells, 36 h post-treatment
[5] = XTT cell proliferation assay in Vero cells; type: cell-based, African green monkey; conditions: African green monkey, non-infected Vero cells, 36 h post-treatment
ZIKV Paraiba/2015 [6] = test: Growth kinetics inhibition assay (infectious viral progeny), Vero cells; type: cell-based, Zika virus
ZIKV Paraiba/2015 [7] = test: Viral inhibition assay, co-treatment, Vero cells; type: cell-based, Zika virus; conditions: for Co-treatment MIC (maximum effective concentration): Vero cells, ZIKV Paraiba/2015, co-treatment; for inhibitor category based on SI-MTT and SI-XTT / inhibitor category based on SI-MTT / inhibitor category based on SI-XTT: co-treatment, Paraiba/2015, Vero
ZIKV Paraiba/2015 [8] = test: Viral inhibition assay, post-treatment, human A549 cells; type: cell-based, Zika virus; conditions: for inhibitor category based on SI-MTT and SI-XTT: Paraiba/2015, A549 cells; for MIC / EC50: Zika virus; for MIC: in Homo sapiens, read-out: A549 cells MIC (maximum effective concentration); for EC50: ZIKV Paraiba/2015, A549 cells, post-treatment, 36 h
ZIKV MR-766 strain = test: Viral inhibition assay, post-treatment, old World strain, Vero cells; type: cell-based, Zika virus; conditions: for EC50 / MIC: Zika virus; for EC50: old World ZIKV MR-766, Vero cells, post-treatment; for MIC: old World ZIKV MR-766 strain, read-out: MR766 MIC (maximum effective concentration)
[9] = MTT cell viability in A549 cells; type: cell-based, human; conditions: human, highest concentration used 50.00 µM, sentence also cites [17]
ZIKV PRVABC59 strain = test: Viral inhibition assay, post-treatment, new World strain, Vero cells; type: cell-based, Zika virus; conditions: for inhibitor category based on SI-MTT / inhibitor category based on SI-XTT / inhibitor category based on SI-MTT and SI-XTT: ZIKV PRVABC59, Vero; for EC50 / MIC: Zika virus; for EC50: new World ZIKV PRVABC59, Vero cells, post-treatment, 48 h; for MIC: new World ZIKV PRVABC59, read-out: PRVABC59 MIC (maximum effective concentration)
[10] = system: ZIKV cocktail of MR-766, FSS13025, and MEX-2-81; conditions: JEG-3 cells, ZIKV cocktail of MR-766, FSS13025, MEX-2-81; cited from earlier work
ZIKV-MEX-2-81 = conditions: ZIKV-MEX-2-81, U2OS cells; cited from earlier work
ZIKV PRVABC59 [11] = system: ZIKV PRVABC59; set-up: method as in ref 22 = [22]; conditions: ZIKV PRVABC59, U251 cells; cited from earlier work
ZIKV PRVABC59 [12] = system: ZIKV PRVABC59; set-up: method as in ref 22 = [22]; conditions: ZIKV PRVABC59, Huh-7 cells; cited from earlier work
ZIKV PRVABC59 [13] = system: ZIKV PRVABC59; set-up: method as in ref 22 = [22]; conditions: ZIKV PRVABC59, SF268 cells; cited from earlier work
[14] = pre-treatment, Paraiba/2015, Vero
[15] = 0.1, 1, 10 EC50, all time points (24, 48, 72 h post-treatment), MOI 0.1

SMILES	CC50 [1] [µM]	EC50 (ZIKV Paraiba/2015 [2]; Zika virus, Vero) [µM]	MIC (ZIKV Paraiba/2015 [2]; Zika virus) [µM]	inhibitor category based on SI-MTT and SI-XTT (ZIKV Paraiba/2015 [2])	MIC (ZIKV Paraiba/2015 [3]) [µM]	EC50 (ZIKV Paraiba/2015 [3]) [µM]	inhibitor category based on SI-MTT (ZIKV Paraiba/2015 [3]; [14])	inhibitor category based on SI-XTT (ZIKV Paraiba/2015 [3]; [14])	CC50 at 36 h ([4]; confluent monolayers) [µM]	CC50 at 36 h ([5]; confluent monolayers) [µM]	Co-treatment MIC (maximum effective concentration) (ZIKV Paraiba/2015 [7]) [µM]	inhibitor category based on SI-MTT and SI-XTT (ZIKV Paraiba/2015 [8])	MIC (ZIKV Paraiba/2015 [8]) [µM]	EC50 (ZIKV Paraiba/2015 [8]) [µM]	inhibitor category based on SI-MTT and SI-XTT (ZIKV MR-766 strain; ZIKV MR-766, Vero)	EC50 (ZIKV MR-766 strain) [µM]	MIC (ZIKV MR-766 strain) [µM]	CC50 [9] [µM]	EC50 (ZIKV PRVABC59 strain) [µM]	MIC (ZIKV PRVABC59 strain) [µM]	also measured
O=C(O)C1=CC(=C(c2ccc(O)c(C(=O)O)c2)c2ccc(O)c(C(=O)O)c2)C=CC1=O [ATA, Aurintricarboxylic acid]	> 50	21	> 100	moderate to weak	> 100	9.86	potent	moderate	> 1350	> 1350	< 33.30	weak	< 100	6.67	weak	8.08	< 33.3	> 50	4.74	< 33.3	caspase 3/7 activation in ZIKV-infected cells (Caspase 3 and 7): dose-dependent effect; effect on production of infectious viral progeny (viral titers) (ZIKV Paraiba/2015 [6]; 10 EC50): complete inhibition; inhibitor category based on SI-MTT and SI-XTT (ZIKV Paraiba/2015 [7]): potent; inhibitor category based on SI-MTT (ZIKV PRVABC59 strain): moderate; inhibitor category based on SI-XTT (ZIKV PRVABC59 strain): weak
CC[C@H](CC#N)OC(=O)N[C@@H](C)c1cccc(NC(=O)Nc2ccc(-c3cnco3)c(OC)c2)c1 [AVN-944]	> 50	0.84	< 11.1	most potent; also recorded: potent	< 100	11.1	Potent	moderate	273	> 1350	> 100.00	Potent	< 0.41	0.05	most potent; also recorded: potent	0.33	< 1.23	> 50	0.38	< 1.23	EC50 (ZIKV Paraiba/2015 [2]): 0.98 µM; effect on production of infectious viral progeny (viral titers) (ZIKV Paraiba/2015 [6]; [15]): dose-dependent inhibitory effect; inhibitor category based on SI-MTT and SI-XTT (ZIKV Paraiba/2015 [7]): moderate; inhibitor category based on SI-MTT and SI-XTT (ZIKV PRVABC59 strain): potent
CCCCCC[C@H]1C(=O)O[C@H](C)[C@H](NC(=O)c2cccc(NC=O)c2O)C(=O)O[C@@H](C)[C@@H]1OC(=O)CC(C)C [Antimycin A]	> 50	1.29	< 100	moderate to weak	< 100	8.95	moderate	moderate	–	–	> 100.00	weak	< 11.1	1.71	most potent; also recorded: potent	0.03	< 33.3	> 50	7.32	< 33.3	inhibitor category based on SI-MTT (ZIKV Paraiba/2015 [2]): weak; inhibitor category based on SI-XTT (ZIKV Paraiba/2015 [2]): potent; CC50 at 36 h [4]: 51.3 µM; CC50 at 36 h [5]: > 1350 µM; effect on production of infectious viral progeny (viral titers) (ZIKV Paraiba/2015 [6]; 72 h post-treatment): dose-dependent effect; inhibitor category based on SI-MTT (ZIKV Paraiba/2015 [7]): moderate; inhibitor category based on SI-XTT (ZIKV Paraiba/2015 [7]): potent; inhibitor category based on SI-MTT and SI-XTT (ZIKV PRVABC59 strain): weak
COc1c(C)c2c(c(O)c1C/C=C(\C)CCC(=O)OCCN1CCOCC1)C(=O)OC2 [Mycophenolate mofetil]	> 50	3.54	> 100	moderate to weak	> 100	8.11	Potent; also recorded: moderate	potent	166	> 1350	> 100.00	weak	< 11.1	0.83	most potent; also recorded: potent	0.24	< 1.23	> 50	0.12	< 1.23	EC50 (ZIKV Paraiba/2015 [2]): 3.52 µM; effect on production of infectious viral progeny (viral titers) (ZIKV Paraiba/2015 [6]; [15]): dose-dependent inhibitory effect; EC50 [10]: 0.76 µM; inhibitor category based on SI-MTT (ZIKV Paraiba/2015 [7]): Potent; inhibitor category based on SI-MTT and SI-XTT (ZIKV Paraiba/2015 [7]): potent; inhibitor category based on SI-XTT (ZIKV Paraiba/2015 [7]): potent; inhibitor category based on SI-MTT and SI-XTT (ZIKV PRVABC59 strain): potent
NCC(=O)Nc1ccc(-n2nc(C(F)(F)F)cc2-c2ccc3c(ccc4ccccc43)c2)cc1 [OSU-03012]	> 50	6.85	< 33.3	weakest	< 3.7	0.93	moderate	highest potent	–	–	> 100.00	moderate	< 1.23	0.21	–	0.81	< 11.1	> 50	1.68	> 11.1	EC50 (ZIKV Paraiba/2015 [2]): 8.4 µM; inhibitor category based on SI-MTT (ZIKV Paraiba/2015 [2]): weak; inhibitor category based on SI-XTT (ZIKV Paraiba/2015 [2]): weak; EC50 (ZIKV-MEX-2-81): 0.9 µM; EC50 (ZIKV PRVABC59 [11]): 0.84 µM; EC50 (ZIKV PRVABC59 [12]): 0.82 to 0.88 µM; CC50 at 36 h [4]: 6.39 µM; CC50 at 36 h [5]: 132 µM; effect on production of infectious viral progeny (viral titers) (ZIKV Paraiba/2015 [6]; 1 EC50, all the analyzed times, may be caused by toxicity): Complete inhibition; EC50 (ZIKV PRVABC59 [13]): 1.18 µM; EC50 (ZIKV Paraiba/2015 [7]; Zika virus, Vero): 1.77 µM; inhibitor category based on SI-MTT (ZIKV Paraiba/2015 [7]): weak; inhibitor category based on SI-XTT (ZIKV Paraiba/2015 [7]): potent; inhibitor category based on SI-MTT (ZIKV MR-766 strain; ZIKV MR-766, Vero): weak; inhibitor category based on SI-XTT (ZIKV MR-766 strain; ZIKV MR-766, Vero): moderate; inhibitor category based on SI-MTT (ZIKV PRVABC59 strain): weak; inhibitor category based on SI-XTT (ZIKV PRVABC59 strain): moderate
NC(=O)c1[nH]nc([C@@H]2O[C@H](CO)[C@@H](O)[C@H]2O)c1O [Pyrazofurin]	> 50	5.16	> 100	moderate to weak	> 100	313	–	weakest	271	> 1350	> 100.00	moderate	< 1.23	0.33	moderate	0.89	< 3.7	> 50	0.95	< 3.7	EC50 (ZIKV Paraiba/2015 [2]): 5.96 µM; inhibitor category based on SI-MTT (ZIKV Paraiba/2015 [2]): moderate; inhibitor category based on SI-XTT (ZIKV Paraiba/2015 [2]): weak; inhibitor category based on SI-MTT and SI-XTT (ZIKV Paraiba/2015 [3]; [14]): weak; effect on production of infectious viral progeny (viral titers) (ZIKV Paraiba/2015 [6]; [15]): dose-dependent inhibitory effect; inhibitor category based on SI-MTT (ZIKV Paraiba/2015 [7]): weak; inhibitor category based on SI-MTT and SI-XTT (ZIKV Paraiba/2015 [7]): weak; inhibitor category based on SI-MTT and SI-XTT (ZIKV PRVABC59 strain): moderate
